Key:
Type in all cases: in vivo
[1] = tested on: Alopecurus myosuroides (ALOMY); experiment: Pre-emergence biological efficacy, glasshouse pot test; details: 312 h, pre-emergence, 1,000 g/ha, evaluated after 13 days (100=total damage; 0=no damage), read-out: Percentage damage ALOMY
Summary of the method: (§1)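 Standard soil, pots, sown then sprayed at day 1 with 1000 or 250 g/ha test compound. Glasshouse: 24/16 °C, 14 h photoperiod, 65% humidity, twice-daily watering. Evaluation day 13, 0–100 damage score.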

[2] = tested on: Amaranthus retoflexus (AMARE); experiment: as above; details: Amaranthus retroflexus, 312 h; pre-emergence, 1,000 g/ha, evaluated after 13 days (100=total damage; 0=no damage); read-out: Percentage damage AMARE
Summary of the method: as §1

[3] = tested on: Echinochloa crus-galli (ECHCG); experiment: as above; details: 312 h, pre-emergence, 1,000 g/ha, evaluated after 13 days (100=total damage; 0=no damage), read-out: Percentage damage ECHCG
Summary of the method: as §1

[4] = tested on: Ipomea hederaceae (IPOHE); experiment: as above; details: Ipomoea hederacea, 312 h; pre-emergence, 1,000 g/ha, evaluated after 13 days (100=total damage; 0=no damage); read-out: Percentage damage IPOHE
Summary of the method: as §1

Setaria faberi (SETFA) [5] = experiment: as above; details: 312 h, pre-emergence, 1,000 g/ha, evaluated after 13 days (100=total damage; 0=no damage), read-out: Percentage damage SETFA
Summary of the method: as §1

Solanum nigrum (SOLNI) [6] = experiment: as above; details: 312 h, pre-emergence, 1,000 g/ha, evaluated after 13 days (100=total damage; 0=no damage), read-out: Percentage damage SOLNI
Summary of the method: as §1

[7] = tested on: Alopecurus myosuroides (ALOMY); experiment: Post-emergence biological efficacy, glasshouse pot test; details: 312 h, post-emergence, 1,000 g/ha, evaluated after 13 days (100=total damage; 0=no damage), read-out: Percentage damage caused to weed species, ALOMY
Summary of the method: (§2)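 Scored 13 days after spraying on a 0 (no damage) to 100 (total damage) scale. Treatment was a post-emergence spray at 1000 or 250 g/ha, from acetone/water 50:50 plus 0.5% Tween 20, onto 8-day-old plants in soil pots. Growth at 24/16° C, 14 h photoperiod, 65% humidity, watered twice daily.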

[8] = tested on: Amaranthus retoflexus (AMARE); experiment: as above; details: Amaranthus retroflexus, 312 h; post-emergence, 1,000 g/ha, evaluated after 13 days (100=total damage; 0=no damage); read-out: Percentage damage caused to weed species, AMARE
Summary of the method: as §2

[9] = tested on: Echinochloa crus-galli (ECHCG); experiment: as above; details: 312 h, post-emergence, 1,000 g/ha, evaluated after 13 days (100=total damage; 0=no damage), read-out: Percentage damage caused to weed species, ECHCG
Summary of the method: as §2

[10] = tested on: Ipomea hederaceae (IPOHE); experiment: as above; details: Ipomoea hederacea, 312 h; post-emergence, 1,000 g/ha, evaluated after 13 days (100=total damage; 0=no damage); read-out: Percentage damage caused to weed species, IPOHE
Summary of the method: as §2

Setaria faberi (SETFA) [11] = experiment: as above; details: 312 h, post-emergence, 1,000 g/ha, evaluated after 13 days (100=total damage; 0=no damage), read-out: Percentage damage caused to weed species, SETFA
Summary of the method: as §2

Solanum nigrum (SOLNI) [12] = experiment: as above; details: 312 h, post-emergence, 1,000 g/ha, evaluated after 13 days (100=total damage; 0=no damage), read-out: Percentage damage caused to weed species, SOLNI
Summary of the method: as §2

| Structure (SMILES) | pest or weed control at 1000 g/ha [1] | pest or weed control at 1000 g/ha [2] | pest or weed control at 1000 g/ha [3] | pest or weed control at 1000 g/ha [4] | pest or weed control at 1000 g/ha (Setaria faberi (SETFA) [5]) | pest or weed control at 1000 g/ha (Solanum nigrum (SOLNI) [6]) | pest or weed control at 1000 g/ha [7] | pest or weed control at 1000 g/ha [8] | pest or weed control at 1000 g/ha [9] | pest or weed control at 1000 g/ha [10] | pest or weed control at 1000 g/ha (Setaria faberi (SETFA) [11]) | pest or weed control at 1000 g/ha (Solanum nigrum (SOLNI) [12]) |
| --- | --- | --- | --- | --- | --- | --- | --- | --- | --- | --- | --- | --- |
| COC(=O)c1nc(C2CC2)nc(NC2(/C=C/c3ccccc3Cl)CC2)c1Cl [Compound 4-24, 5-Chloro-4-{1-[2-(2-chlorophenyl)-ethenyl]-cyclopropylamino}-2-cyclopropyl-6-methoxycarbonyl-pyrimidine] | 10% | 100% | 0% | 40% | 0% | 90% | 10% | 100% | 30% | 100% | 60% | 80% |
| COC(=O)c1nc(C2CC2)nc(NC2(/C=C/c3ccc(C)cc3)CC2)c1Cl [Compound 4-25, 5-Chloro-2-cyclopropyl-6-methoxycarbonyl-4-{1-[2-(4-methylphenyl)-ethenyl]-cyclopropylamino}-pyrimidine] | 10% | 100% | 10% | 30% | 0% | 60% | 40% | 100% | 60% | 100% | 60% | 80% |
| COC(=O)c1nc(C2CC2)nc(NC2(/C=C/c3c(F)cccc3F)CC2)c1Cl [Compound 4-26, 5-Chloro-2-cyclopropyl-4-{1-[2-(2,6-difluoro-phenyl)ethenyl]-cyclopropylamino}-6-methoxy-carbonylpyrimidine] | 10% | 20% | 0% | 50% | 0% | 20% | 20% | 100% | 20% | 90% | 60% | 70% |
| COC(=O)c1nc(C2CC2)nc(NC2(/C=C/c3ccccc3F)CC2)c1Cl [Compound 4-27, 5-Chloro-2-cyclopropyl-4-{1-[2-(2-fluorophenyl)-ethenyl]-cyclo-propylamino}-6-methoxycarbonyl-pyrimidine] | 10% | 40% | 0% | 80% | 0% | 10% | 10% | 100% | 60% | 100% | 70% | 80% |
| COC(=O)c1nc(C2CC2)nc(NC2(/C=C/c3ccc(Cl)cc3Cl)CC2)c1Cl [Compound 4-28, 5-Chloro-2-cyclopropyl-4-{1-[2-(2,4-dichloro-phenyl)ethenyl]-cyclopropyl-amino}-6-methoxy-carbonylpyrimidine] | 10% | 90% | 0% | 70% | 10% | 40% | 10% | 100% | 30% | 100% | 50% | 80% |
| COC(=O)c1nc(C2CC2)nc(NC2(/C=C/c3cccc(Cl)c3Cl)CC2)c1Cl [Compound 4-29, 5-Chloro-2-cyclopropyl-4-{1-[2-(2,3-dichloro-phenyl)ethenyl]-cyclopropylamino}-6-methoxycarbonyl-pyrimidine] | 10% | 30% | 0% | 70% | 10% | 30% | 10% | 90% | 30% | 100% | 60% | 100% |
| COC(=O)c1nc(C2CC2)nc(NC2(/C=C/c3cccc(Cl)c3)CC2)c1Cl [Compound 4-30, 5-Chloro-4-{1-[2-(3-chlorophenyl)-etenyl]-cyclopropylamino}-2-cyclopropyl-6-methoxycarbonyl-pyrimidine] | 0% | 20% | 0% | 40% | 10% | 0% | 10% | 100% | 30% | 100% | 60% | 70% |
| COC(=O)c1nc(C2CC2)nc(NC2(/C=C/c3ccc(F)cc3F)CC2)c1Cl [Compound 4-31, 5-Chloro-2-cyclopropyl-4-{1-[2-(2,4-difluoro-phenyl)-ethenyl]-cyclopropylamino}-6-methoxy-carbonylpyrimidine] | 0% | 80% | 0% | 70% | 0% | 20% | 10% | 100% | 30% | 80% | 80% | 90% |
| COC(=O)c1nc(C2CC2)nc(NC2CCC2)c1Cl [Compound 4-32, 5-Chloro-4-cyclobutylamino-2-cyclopropyl-6-methoxycarbonyl-pyrimidine] | 50% | 80% | 50% | 80% | 80% | 80% | 50% | 100% | 70% | 100% | 90% | 90% |
| COC(=O)c1nc(C2CC2)nc(NC2CCCC2)c1Cl [Compound 4-33, 5-Chloro-4-cyclopentylamino-2-cyclopropyl-6-methoxycarbonyl-pyrimidine] | 0% | 50% | 20% | 50% | 10% | 20% | 30% | 80% | 60% | 70% | 70% | 70% |

— patent publication US20110086759A1, “CHEMICAL COMPOUNDS” (SYNGENTA CROP PROTECTION, INC., priority 2007, published 2011)
